Data set [1] deals with T1, Serine/threonine-protein kinase 17A (Homo sapiens, UniProt Q9UEE5).
T1 sequence (Q9UEE5 whole entry): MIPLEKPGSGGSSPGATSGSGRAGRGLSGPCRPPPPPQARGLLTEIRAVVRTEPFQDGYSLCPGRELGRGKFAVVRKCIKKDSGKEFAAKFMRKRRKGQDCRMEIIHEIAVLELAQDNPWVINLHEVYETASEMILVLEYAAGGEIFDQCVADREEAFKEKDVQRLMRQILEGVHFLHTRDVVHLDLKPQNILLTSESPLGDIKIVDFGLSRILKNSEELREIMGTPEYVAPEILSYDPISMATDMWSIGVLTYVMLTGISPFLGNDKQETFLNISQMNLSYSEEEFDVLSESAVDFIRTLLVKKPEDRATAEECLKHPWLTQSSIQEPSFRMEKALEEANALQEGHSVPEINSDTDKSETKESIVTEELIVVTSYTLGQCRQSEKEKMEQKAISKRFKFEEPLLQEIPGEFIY
In words: Inhibition of STK17A (unknown origin) in presence of ATP.

Data set [2] has as its target T2, Myosin light chain kinase family member 4 (Homo sapiens, UniProt Q86YV6).
T2 sequence (Q86YV6 whole entry): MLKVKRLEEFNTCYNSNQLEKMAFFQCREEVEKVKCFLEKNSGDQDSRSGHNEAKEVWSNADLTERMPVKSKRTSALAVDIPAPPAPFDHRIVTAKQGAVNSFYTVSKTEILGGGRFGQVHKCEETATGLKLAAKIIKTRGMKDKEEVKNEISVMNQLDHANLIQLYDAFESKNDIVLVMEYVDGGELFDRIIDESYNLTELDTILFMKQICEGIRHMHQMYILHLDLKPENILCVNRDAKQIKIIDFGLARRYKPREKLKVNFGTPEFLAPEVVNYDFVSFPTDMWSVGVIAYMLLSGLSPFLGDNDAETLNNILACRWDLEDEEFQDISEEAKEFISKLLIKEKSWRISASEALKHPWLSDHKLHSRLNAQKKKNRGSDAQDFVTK
In words: Inhibition of MYLK4 (unknown origin) in presence of ATP.

In data set [3] the target is CYP2C9 (Homo sapiens, UniProt P11712). As to the kind of experiment: Inhibition of CYP2C9 (unknown origin) using tolbutamide as substrate at 10 uM by cocktail based assay relative to control. To be noted: probe tolbutamide. In kind it is ADME.
Data set [4] deals with CYP3A4 (Homo sapiens, UniProt P08684). In words: Inhibition of CYP3A4 (unknown origin) using midazolam as substrate at 10 uM by cocktail based assay relative to control. It is filed as ADME. Particulars: probe midazolam.
The target of data set [5] is CYP2D6 (Homo sapiens, UniProt P10635). In words: Inhibition of CYP2D6 (unknown origin) using bufuralol as substrate at 10 uM by cocktail based assay relative to control. In kind it is ADME. Particulars: probe bufuralol.
Data set [6] is described as follows: Microsomal stability in mouse liver microsomes assessed as half life. In kind it is ADME, Microsome.
Data set [7] is described as follows: Microsomal stability in human liver microsomes assessed as half life. It is filed as ADME, Microsome.
Data set [8] deals with T3, CYP1A2 (Homo sapiens, UniProt P05177).
T3 sequence (P05177 whole entry): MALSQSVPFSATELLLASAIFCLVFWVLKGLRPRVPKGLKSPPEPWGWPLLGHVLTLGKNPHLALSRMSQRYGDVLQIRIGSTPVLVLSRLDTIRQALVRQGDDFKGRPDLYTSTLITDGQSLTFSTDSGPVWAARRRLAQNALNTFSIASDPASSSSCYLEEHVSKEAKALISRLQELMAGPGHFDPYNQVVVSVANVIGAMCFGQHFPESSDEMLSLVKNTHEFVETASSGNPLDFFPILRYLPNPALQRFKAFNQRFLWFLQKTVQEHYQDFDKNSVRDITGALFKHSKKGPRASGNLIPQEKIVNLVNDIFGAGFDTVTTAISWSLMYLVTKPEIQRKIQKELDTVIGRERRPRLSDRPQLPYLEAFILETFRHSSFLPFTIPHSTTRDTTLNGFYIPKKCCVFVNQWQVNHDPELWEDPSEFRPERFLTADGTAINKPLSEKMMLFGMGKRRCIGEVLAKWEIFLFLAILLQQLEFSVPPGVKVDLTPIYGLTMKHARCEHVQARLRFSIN
In words: Inhibition of CYP1A2 (unknown origin) using phenacetin as substrate at 10 uM by cocktail based assay relative to control. It is filed as ADME. To be noted: probe phenacetin.

Data set [9] concerns the target T4, Dual specificity protein kinase CLK4 (Homo sapiens, UniProt Q9HAZ1). As to the kind of experiment: Inhibition of CLK4 (unknown origin) in presence of ATP.
Target sequence in this assay (Q9HAZ1 whole entry): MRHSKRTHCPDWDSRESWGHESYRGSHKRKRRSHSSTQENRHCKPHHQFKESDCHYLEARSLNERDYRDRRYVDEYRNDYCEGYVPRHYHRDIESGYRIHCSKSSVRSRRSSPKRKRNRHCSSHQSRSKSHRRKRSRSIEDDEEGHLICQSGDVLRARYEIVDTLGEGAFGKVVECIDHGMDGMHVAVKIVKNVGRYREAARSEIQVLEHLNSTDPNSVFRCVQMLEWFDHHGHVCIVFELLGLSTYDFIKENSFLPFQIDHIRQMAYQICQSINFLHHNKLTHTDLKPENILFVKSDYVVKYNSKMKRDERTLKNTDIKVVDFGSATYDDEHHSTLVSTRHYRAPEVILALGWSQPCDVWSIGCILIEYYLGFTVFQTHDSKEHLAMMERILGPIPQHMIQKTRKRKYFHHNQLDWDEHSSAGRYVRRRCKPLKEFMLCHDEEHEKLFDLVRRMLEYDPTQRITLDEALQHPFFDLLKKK
Data set [10] has as its system HEL. In words: Antiproliferative activity against human HEL cells assessed as inhibition of cell growth incubated for 72 hrs by Cell Titer-Glo luminescence assay. It is filed as functional, cell-based. (In ATP-based viability assays light output follows the ATP content of the culture.)
The subject of data set [11] is MOLM-13. In words: Antiproliferative activity against human MOLM-13 cells assessed as inhibition of cell growth incubated for 72 hrs by Cell Titer-Glo luminescence assay. It is filed as functional, cell-based. To be noted: MOLM-13, 72 h.
A short description of data set [12]: Antiproliferative activity against human HEK293T cells assessed as inhibition of cell growth incubated for 72 hrs by Cell Titer-Glo luminescence assay. In kind it is toxicity, cell-based, HEK-293T.
For data set [13], the system named is Kasumi 1. In words: Antiproliferative activity against human Kasumi 1 cells assessed as inhibition of cell growth incubated for 72 hrs by Cell Titer-Glo luminescence assay. It is filed as functional, cell-based. Particulars: Kasumi 1, 72 h.
Data set [14] addresses T4, Dual specificity protein kinase CLK4. To be noted: dose 100.0 nM.
Target sequence in this assay (Q9HAZ1 whole entry, looked up): as the sequence (Q9HAZ1 whole entry) above
Description: Inhibition of CLK4 (unknown origin) at 100 nM in presence of ATP relative to control
Data set [15] deals with Serine/threonine-protein kinase TBK1 (Homo sapiens, UniProt Q9UHD2). As to the kind of experiment: Inhibition of TBK1 (unknown origin) in presence of ATP.
The target in data set [16] is Serine/threonine-protein kinase 17A (Homo sapiens) (UniProt Q9UEE5). Particulars: dose 100.0 nM.
Description: Inhibition of STK17A (unknown origin) at 100 nM in presence of ATP relative to control
Data set [17] has as its target Serine/threonine-protein kinase TBK1 (Homo sapiens) (UniProt Q9UHD2). Particulars: dose 100.0 nM.
Description: Inhibition of TBK1 (unknown origin) at 100 nM in presence of ATP relative to control
The target of data set [18] is Myosin light chain kinase family member 4 (Homo sapiens) (UniProt Q86YV6). Particulars: dose 100.0 nM.
Description: Inhibition of MYLK4 (unknown origin) at 100 nM in presence of ATP relative to control
The target in data set [19] is Inhibitor of nuclear factor kappa-B kinase subunit epsilon (Homo sapiens) (UniProt Q14164). In words: Inhibition of IKKepsilon (unknown origin) at 100 nM in presence of ATP relative to control.
For data set [20], the target named is Dual specificity protein kinase CLK2 (Homo sapiens) (UniProt P49760). In words: Inhibition of CLK2 (unknown origin) at 100 nM in presence of ATP relative to control.

Results on 18 molecules are retold here after ChEMBL document CHEMBL5532747, “Potent, Selective, and Orally Bioavailable Quinazoline-Based STK17A/B Dual Inhibitors” (ACS Med Chem Lett, 2024).

Each structure is given as a SMILES string. A value given as a limit tells only on which side of the number the result lay.

Chain of CYP2C9 (P11712 whole entry): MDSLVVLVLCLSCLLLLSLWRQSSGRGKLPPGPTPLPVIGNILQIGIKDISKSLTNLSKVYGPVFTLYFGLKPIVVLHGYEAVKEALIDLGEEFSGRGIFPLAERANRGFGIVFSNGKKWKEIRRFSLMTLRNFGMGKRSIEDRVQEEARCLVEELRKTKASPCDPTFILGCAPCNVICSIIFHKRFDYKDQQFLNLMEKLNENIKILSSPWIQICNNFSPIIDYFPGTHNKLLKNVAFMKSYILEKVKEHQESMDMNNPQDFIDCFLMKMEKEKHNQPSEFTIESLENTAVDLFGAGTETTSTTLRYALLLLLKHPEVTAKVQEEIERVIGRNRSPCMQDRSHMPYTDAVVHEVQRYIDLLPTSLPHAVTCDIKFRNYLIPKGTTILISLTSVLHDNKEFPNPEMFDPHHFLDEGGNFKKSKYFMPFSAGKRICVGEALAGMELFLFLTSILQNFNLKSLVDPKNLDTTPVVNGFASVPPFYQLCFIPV
Chain of CYP2D6 (P10635 whole entry): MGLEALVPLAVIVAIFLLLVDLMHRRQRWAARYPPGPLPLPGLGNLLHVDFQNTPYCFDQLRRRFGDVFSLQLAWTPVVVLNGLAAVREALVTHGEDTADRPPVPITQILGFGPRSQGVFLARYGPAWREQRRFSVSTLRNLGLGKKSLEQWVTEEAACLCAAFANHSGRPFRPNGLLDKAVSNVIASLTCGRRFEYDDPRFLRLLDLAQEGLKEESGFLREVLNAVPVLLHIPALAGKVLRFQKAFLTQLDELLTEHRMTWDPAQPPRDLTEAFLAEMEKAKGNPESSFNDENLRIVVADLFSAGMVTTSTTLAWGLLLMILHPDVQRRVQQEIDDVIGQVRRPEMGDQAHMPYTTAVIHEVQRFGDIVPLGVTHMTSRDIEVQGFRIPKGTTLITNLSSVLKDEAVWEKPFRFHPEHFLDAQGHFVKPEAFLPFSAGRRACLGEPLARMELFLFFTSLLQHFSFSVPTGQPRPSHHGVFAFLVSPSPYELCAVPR
Chain of CYP3A4 (P08684 whole entry): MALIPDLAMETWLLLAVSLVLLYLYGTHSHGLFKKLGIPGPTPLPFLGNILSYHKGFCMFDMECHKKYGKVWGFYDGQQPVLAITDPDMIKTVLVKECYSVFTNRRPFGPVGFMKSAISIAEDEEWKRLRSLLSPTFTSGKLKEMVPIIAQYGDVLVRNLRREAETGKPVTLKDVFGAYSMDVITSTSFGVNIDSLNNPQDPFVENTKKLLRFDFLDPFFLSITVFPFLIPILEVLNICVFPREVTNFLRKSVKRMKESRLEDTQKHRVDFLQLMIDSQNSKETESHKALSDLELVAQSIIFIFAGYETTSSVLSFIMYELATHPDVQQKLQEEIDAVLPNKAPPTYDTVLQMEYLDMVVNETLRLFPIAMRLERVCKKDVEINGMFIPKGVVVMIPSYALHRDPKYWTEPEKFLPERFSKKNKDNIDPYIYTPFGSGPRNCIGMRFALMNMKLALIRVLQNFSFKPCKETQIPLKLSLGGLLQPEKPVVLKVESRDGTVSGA
Chain of Inhibitor of nuclear factor kappa-B kinase subunit epsilon (Homo sapiens) (Q14164 whole entry): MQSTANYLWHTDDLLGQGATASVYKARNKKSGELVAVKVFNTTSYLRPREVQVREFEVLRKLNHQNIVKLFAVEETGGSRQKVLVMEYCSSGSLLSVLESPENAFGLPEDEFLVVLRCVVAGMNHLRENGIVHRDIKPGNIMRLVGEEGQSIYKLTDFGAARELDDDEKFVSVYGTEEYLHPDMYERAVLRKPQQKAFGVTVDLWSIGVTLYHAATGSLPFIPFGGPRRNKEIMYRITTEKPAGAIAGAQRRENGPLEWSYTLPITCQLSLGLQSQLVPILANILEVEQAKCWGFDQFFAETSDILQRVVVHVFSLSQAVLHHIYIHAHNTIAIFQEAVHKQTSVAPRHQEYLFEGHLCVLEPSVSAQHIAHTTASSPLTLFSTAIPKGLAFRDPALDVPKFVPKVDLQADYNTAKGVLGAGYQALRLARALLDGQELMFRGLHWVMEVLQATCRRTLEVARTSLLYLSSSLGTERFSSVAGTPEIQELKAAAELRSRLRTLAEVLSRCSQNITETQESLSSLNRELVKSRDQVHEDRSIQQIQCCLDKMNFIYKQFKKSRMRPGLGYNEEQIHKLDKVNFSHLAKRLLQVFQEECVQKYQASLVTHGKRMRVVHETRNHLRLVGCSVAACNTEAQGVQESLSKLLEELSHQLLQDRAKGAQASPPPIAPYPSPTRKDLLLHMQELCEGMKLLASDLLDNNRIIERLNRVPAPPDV
Chain of Serine/threonine-protein kinase TBK1 (Homo sapiens) (Q9UHD2 whole entry): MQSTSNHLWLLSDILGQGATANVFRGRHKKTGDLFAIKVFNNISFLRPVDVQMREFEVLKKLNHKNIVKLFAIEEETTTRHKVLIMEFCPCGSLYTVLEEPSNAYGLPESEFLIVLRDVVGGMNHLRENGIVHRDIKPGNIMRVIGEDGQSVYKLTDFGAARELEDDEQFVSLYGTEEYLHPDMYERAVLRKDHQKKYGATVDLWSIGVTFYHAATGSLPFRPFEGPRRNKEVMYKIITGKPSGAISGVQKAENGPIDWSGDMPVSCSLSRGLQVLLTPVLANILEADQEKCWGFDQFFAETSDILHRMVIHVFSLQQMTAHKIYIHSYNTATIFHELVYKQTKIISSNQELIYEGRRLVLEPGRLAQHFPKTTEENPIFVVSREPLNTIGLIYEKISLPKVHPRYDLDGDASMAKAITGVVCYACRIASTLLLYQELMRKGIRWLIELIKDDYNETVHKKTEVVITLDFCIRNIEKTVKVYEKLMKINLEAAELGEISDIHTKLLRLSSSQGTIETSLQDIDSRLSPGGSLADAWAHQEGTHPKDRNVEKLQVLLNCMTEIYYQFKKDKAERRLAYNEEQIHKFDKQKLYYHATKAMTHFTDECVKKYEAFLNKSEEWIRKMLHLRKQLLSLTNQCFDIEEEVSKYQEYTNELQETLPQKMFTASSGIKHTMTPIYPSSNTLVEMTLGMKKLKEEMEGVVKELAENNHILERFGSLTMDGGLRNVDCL
Chain of Serine/threonine-protein kinase TBK1 (Q9UHD2 whole entry): as above
Chain of Dual specificity protein kinase CLK2 (Homo sapiens) (P49760 whole entry, looked up): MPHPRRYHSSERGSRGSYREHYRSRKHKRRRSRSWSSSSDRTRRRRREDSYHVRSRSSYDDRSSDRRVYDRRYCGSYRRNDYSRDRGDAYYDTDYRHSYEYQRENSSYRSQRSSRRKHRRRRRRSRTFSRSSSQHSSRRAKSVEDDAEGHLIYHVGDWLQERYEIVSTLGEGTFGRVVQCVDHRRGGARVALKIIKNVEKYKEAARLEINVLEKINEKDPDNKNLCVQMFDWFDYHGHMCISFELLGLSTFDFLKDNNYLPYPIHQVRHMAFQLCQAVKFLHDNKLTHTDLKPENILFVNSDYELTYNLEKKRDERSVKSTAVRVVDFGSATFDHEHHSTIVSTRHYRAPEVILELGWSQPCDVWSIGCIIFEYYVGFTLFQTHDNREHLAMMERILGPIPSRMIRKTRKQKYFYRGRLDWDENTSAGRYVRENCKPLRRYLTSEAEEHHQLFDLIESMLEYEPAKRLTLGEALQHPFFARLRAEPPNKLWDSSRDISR

On to `O=C(NC1CCNCC1)c1ccc(Nc2nccc(-c3ccc4nc(N5CCCC5)ncc4c3)n2)cc1`, for which, in [1], the IC50 (commonly the midpoint of a concentration-inhibition curve) turned out to be 316 nM.
For `c1cc(-c2ccc3nc(N4CCCC4)ncc3c2)nc(Nc2cnn(C3CCNCC3)c2)n1`, the IC50 in [2] is 6 nM; in data set [1], 20 nM. Moreover, the inhibition (usually the percentage by which the read-out fell short of the control) at 10 µM in data set [3] was less than 10%; in data set [4], less than 10%; in data set [5], 5%; in [8] it was 52%. The half-life (commonly how long it takes for the measured level to halve) is more than 100 min in data set [6] and 23 min in [7].
With `CC(C)NC(=O)c1ccc(Nc2nccc(-c3ccc4nc(N5CCCC5)ncc4c3)n2)cn1`, the IC50 in data set [2] is 85 nM; in data set [1], 12 nM; in data set [9], more than 10000 nM. Further, the inhibition at 10 µM is 39% in data set [3], 25% in data set [4], 16% in data set [5] and 22% in [8]. Besides, the half-life in data set [6] stood at 92 min; in data set [7], 61 min.
`CC(C)NC(=O)c1cccc(Nc2nccc(-c3ccc4nc(N5CCCC5)ncc4c3)n2)c1`: in data set [1], the IC50 came out at 144 nM.
Take `c1cc(-c2ccc3nc(N4CCOCC4)ncc3c2)nc(Nc2cnn(C3CCNCC3)c2)n1`: the IC50 in data set [2] is 6 nM; in data set [1] it was 19 nM. The inhibition at 10 µM is less than 10% in [3], less than 10% in data set [4], less than 10% in data set [5] and 11% in data set [8]. Further, the half-life was determined as 62 min in [6] and 84 min in [7].
With `COC(=O)N1CCC(c2ccc(Nc3nccc(-c4ccc5nc(N6C[C@@H]7C[C@H]6CO7)ncc5c4)n3)cn2)CC1`, the half-inhibitory concentration (IC50) in [1] came to 29 nM.
With `OCCN1CCC(n2cc(Nc3ncc(F)c(-c4ccc5nc(N6CCOCC6)ncc5c4)n3)cn2)CC1`, the IC50 in [2] was 17 nM; in data set [1], 21 nM; in data set [10], 2960 nM; in [11] it was 1960 nM; in data set [13], 760 nM. Further, the inhibition at 10 µM in [3], in data set [4], in [5] and in data set [8] was less than 10% in each case. Also, the half-life in [6] is 83 min; in data set [7] it was 97 min. The IC50 at 72 h in data set [12] turned out to be 16200 nM.
In the case of `OCCN1C[C@@H]2C[C@H]1CN2c1ccc(Nc2ncc(F)c(-c3ccc4nc(N5CCCC5)ncc4c3)n2)cn1`, the figures for the IC50 in [2], in data set [1] and in data set [9] were 13 nM, 48 nM and 160 nM, respectively.
Regarding `c1cc(-c2ccc3nc(N4CCCC4)ncc3c2)nc(Nc2ccc(N3CCOCC3)cc2)n1`, the IC50 was determined as 46 nM in data set [2] and 43 nM in data set [1]. Further, the inhibition at 10 µM in data set [3] is 14%; in data set [4], 22%; in [5] it was less than 10%; in [8] it was less than 10%. Further, the half-life in data set [6] is 35 min; in data set [7], 69 min.
In the case of `COC(=O)N1CCC(c2ccc(Nc3nccc(-c4ccc5nc(N6CCCC6)ncc5c4)n3)cn2)CC1`, the IC50 in data set [1] came to 66 nM.
As for `c1cc(-c2ccc3nc(N4CCCC4)ncc3c2)nc(Nc2ccc(N3CCNCC3)cc2)n1`, the IC50 in data set [2] was found to be 27 nM; in data set [1], 55 nM. In addition, the inhibition at 10 µM in data set [3] worked out at 23%; in data set [4], 22%; in [5] it was 2%; in data set [8] it was 7%. Besides, the half-life was 9 min in data set [6] and more than 100 min in data set [7].
Turning to `CN1CCN(c2ccc(Nc3nccc(-c4ccc5nc(N6CCCC6)ncc5c4)n3)cc2)CC1`, the IC50 in data set [1] worked out at 51 nM.
Regarding `CC(C)NC(=O)c1ccc(Nc2nccc(-c3ccc4nc(N5CCOCC5)ncc4c3)n2)cc1`, the IC50 in [2] was 68 nM; in data set [1] it was 20 nM. Besides, the inhibition at 10 µM in data set [3] was less than 10%; in data set [4] it was less than 10%; in [5] it was 1%; in data set [8], 12%. The half-life is 59 min in data set [6] and 16 min in [7].
For `CC(C)NC(=O)c1ccc(Nc2ncc(F)c(-c3ccc4nc(N5CCCC5)ncc4c3)n2)cc1`, the figures for the IC50 in data set [2], in data set [1] and in data set [9] were more than 1000 nM, 25 nM and more than 10000 nM, respectively. The inhibition at 10 µM in data set [3], in data set [4], in data set [5] and in [8] was less than 10% throughout. Further, the half-life in [6] amounted to 22 min; in [7] it was 44 min.
`c1cc(-c2ccc3nc(N4CCCC4)ncc3c2)nc(Nc2ccc(N3CCNCC3)nc2)n1`: the IC50 in data set [2] was 2 nM; in data set [1], 18 nM; in [10], 1930 nM; in data set [15], 135 nM; in [11] it was 1340 nM; in data set [9] it was 124 nM. Further, the IC50 in data set [13] was 1190 nM. In addition, the inhibition in data set [14] was 50%; in data set [16], 75%; in data set [17], 45%; in data set [18] it was 95%; in data set [19], 45%; in [20], 50%. For the same molecule, the IC50 at 72 h in data set [12] came to 11700 nM.
With `OCCN1CCC(c2ccc(Nc3nccc(-c4ccc5nc(N6C[C@@H]7C[C@H]6CO7)ncc5c4)n3)cn2)CC1`, the IC50 in data set [2] was 40 nM; in [1], 17 nM; in data set [9], 1120 nM. Further, the inhibition at 10 µM in [3], in data set [4], in data set [5] and in data set [8] was less than 10% throughout. In addition, the figures for the half-life in data set [6] and in [7] were 69 min and 20 min, respectively.
Take `c1cc(-c2ccc3nc(N4CCOCC4)ncc3c2)nc(Nc2ccc(N3CCNCC3)cc2)n1`: the half-inhibitory concentration (IC50) in data set [2] amounted to 4 nM; in data set [1] it was 20 nM. Also, the inhibition at 10 µM in [3] is 7%; in data set [4] it was 11%; in data set [5] it was less than 10%; in data set [8] it was less than 10%. Moreover, the half-life was 16 min in data set [6] and 12 min in data set [7].
As for `c1cc(-c2ccc3nc(N4CCCC4)ncc3c2)nc(Nc2ccc(OC3CCNCC3)cc2)n1`, the IC50 in data set [1] is more than 10000 nM.
